Data: US20020039601A1, “Cancer cell growth suppressor and cell differentiation inducer and method for manufacturing the same” (priority 2000, published 2002)

Key:
[1] = tested on: carcinoma strain of the colon (Colo201 cells); experiment: CD-DST cancer cell growth suppression test, Colo201; format: cell-based, human; conditions: 67.6 μg of capsanthin (FIG. 6)
Text: Employing a drug sensitivity test method (CD-DST method), Toma-pi water-soluble component condensed liquid of different concentrations was examined for growth suppressing effect at the contact time set at seven days.
The CD-DST method herein referred to is a well-known experiment method called a collagen gel drop method, and its steps are shown in FIG. 1. Its details are also described in “Establishment of Collagen Gel Droplet Embedded Culture Drug Sensitivity Test (CD-DST) and consideration about its clinical utility” in “Cancer and Chemical Treatment” (published in 1995, vol.22, 1933-1939 pages).
As a method of cultivating cancer cells, a human cancer cell first generation cultivation system kit (Plymaster made by Nitta Gelatine Co.), was used and cells were cultivated according to a normal method (reference document J. Jpn. Soc. Cancer Ther. 29(7):946-956, 1994).
The growth suppressing effect was judged in terms of suppressing percentage (T/C%) which is the ratio of a treated group to an untreated group (control group). Units μg and mg shown in FIGS. 2-7 show the concentrations of Toma-pi water-soluble components in terms of the weight of Toma-pi powder (dried powder of Capsicum Annuum L.Var.grossumn) used as raw material for water extracting. It is hereinbelow referred to as “converted concentration of Toma-pi water-soluble components”.

[2] = tested on: HL-60 cells; experiment: Human leukemia differentiation inducing test (NBT reducing ability); format: cell-based; conditions: HL60 cells
Protocol: The differentiation inducing test using HL-60 cells, which are leukemia cells, was performed according to “New Cultured Cell Experiment Method” (written by Toshio Kuroki, on pages 286-289, published by Yodosha), “Jpn. J-Cancer” (Res. 81, 807-812, August 1990), and “Clinical Test Method” written by Izumi Kamei, page 358, published by Kinbara Shuppan) to examine the differentiation inducing ability with the NBT reducing ability as an index.
It is known that for HL60 cells, differentiation is induced by retinoic acid, DMSO or active type vitamin D3. Active type vitamin D3 (medicine for external use, treatment of psoriasis) and all-trans retinoic acid (ATRA) are used as oral medicine for treating leukemia. When leukemia cells differentiate, azurophile granules in the cells reduce. If they differentiate into granulocyte, cell nucleus segment. […] As a convenient marker for differentiation induction of leukemia cells, one method is to measure nitro blune tetrazolium (NBT) reducing ability.
The NBT test uses the fact that when promyelocytic leukemia cells such as HL60 differentiate into monocyte/macrophage, production of active oxygen increases. That is to say, formation of insoluble formozan produced when NBT is reduced due to oxidation/reduction reaction by the active oxygen is used as a marker of differentiation. Active vitamin D3 has a differentiating ability at 10^−9 to 10^−6 M, ATRA at 10^−8 to 10^−6 M, and DMSO at 1.2 to 1.3%. At the respective maximum concentrations, they can differentiate by about 90% or over. Judging by the NBT reducing ability, the results were examined.

[3] = tested on: HL-60 cells; conditions: HL60 cells, cited from earlier work

CC1=C(/C=C/C(C)=C/C=C/C(C)=C/C=C/C=C(C)/C=C/C=C(C)/C=C/C(=O)[C@]2(C)C[C@@H](O)CC2(C)C)C(C)(C)C[C@H](O)C1 [capsanthin]
growth suppression [1]: 24%
active type vitamin D3 concentration from which differentiation was promoted in combination ([2]; capsanthin 200 μg with active type vitamin D3 (FIG. 9)): ≥ 75 pM
active type vitamin D3 concentration at which differentiation was promoted in combination ([2]; capsanthin 400 μg with active type vitamin D3 (FIG. 9)): 10^−11 M

CC1=C(/C=C/C(C)=C/C=C/C(C)=C/C(=O)O)C(C)(C)CCC1 [ATRA, all-trans retinoic acid]
concentration having differentiating ability [3]: 10^−8 to 10^−6 M

C[S+](C)[O-] [DMSO]
concentration having differentiating ability [3]: 1.2 to 1.3%

active type vitamin D3
NBT reducing rate ([2]; 10^−9 M): about 5%
differentiating ability ([3]; 10^−10 M, alone): does not ordinarily show any differentiating ability
concentration having differentiating ability [3]: 10^−9 to 10^−6 M
